# Laboratory results reported in patent US20240262804A1, “NITROGEN-CONTAINING HETEROCYCLIC KETONES, PREPARATION METHODS AND MEDICINAL USES THEREOF” (Hansoh Bio LLC, priority 2021, published 2024).
# Target: bovine cardiac myosin (Bos taurus (Bovine), UniProt Q9BE39)
# Assay: Myosin inhibitory potency: PK/LDH-coupled ATPase assay on bovine skinned cardiac myofibrils
# Type: biochemical
# Conditions: pCa=6.25, 50 μM ATP, 25° C., read-out: myosin inhibition activity IC50
# Procedure: The average rates of ATPase inhibition, and the IC50 values are determined by Victor Nivo multimode plate reader (PerkinElmer, USA).
# As to the assays background, a biochemical assay couples the ATPase activity of bovine cardiac myosin to an enzymatic coupling system consisting of pyruvate kinase and lactate dehydrogenase (PK/LDH) and monitoring the absorbance decrease of NADH (at 340 nm) as a function of time to measure the inhibitory ability of small molecule agents. In the assay, PK converts ADP (Adenosine diphosphate) to ATP (adenosine triphosphate) by converting PEP (phosphoenolpyruvate) to pyruvate. Pyruvate is then converted to lactate by LDH by converting NADH (nicotinamide adenine dinucleotide) to NAD (oxidized nicotinamide adenine dinucleotide).
# In our experiments, bovine skinned cardiac myofibrils were isolated from the frozen bovine left ventricle as myosin's source in the ATPase assay. The calcium concentration that achieves a 50% (pCa50 or pCa=6.25) activation of the myofibril system was chosen as the final condition for assessing the activation activity according to the literature (DOI: 10.1074/jbc.M117.776815). Myofibrils ATPase activity was measured in a buffered solution containing 12 mM PIPES (piperazine-N, N′-bis(2-ethane sulfonic acid) and 2 mM magnesium chloride at pH 6.8 (PM12 buffer). Final assay conditions were 1 mg/mL of bovine cardiac myofibrils, 1:20 of stock PK/LDH (Sigma-Aldrich, Cat No. P0294-5X5ML), 50 μM ATP, 1 mM DTT (dithiothreitol), 0.75 mM NADH, 1.5 mM PEP at pCa50 (pCa=6.25). Compounds were dissolved in DMSO (dimethyl sulfoxide). Serial dilution of compounds was created such that the final desired concentration of compound would be achieved in a volume of 150 μL with a fixed DMSO concentration of 2% (v/v). 75 μL of a solution containing bovine cardiac myofibrils, PK/LDH, and calcium were added to a 96 well plate for a 7 point dose-response. In some circumstances, 10 point-response was used to repeat the ATPase assays on compounds of interest. Compounds were added to the myofibrils solution and incubated for 5 minutes. The enzymatic reaction was started with the addition of 75 μL of a solution containing ATP, PEP, NADH, compounds, and calcium. The ATPase activity was measured by reading absorbance at 340 nm in a PerkinElmer Victor Nivo plate reader at 25° C. in kinetic mode for 15 minutes using clear bottom plates. The slopes of the absorbance changes as a function of time for the first 10 minutes were normalized to slopes on the control wells containing all reagents, including DMSO, but without compounds. This normalized rate was then plotted as a function of small molecule concentration in GraphPad prism 9. The data were fitted to a four-parameter fit, and IC50 was calculated using Graphpad Prism 9.
# Sequence of bovine cardiac myosin (Q9BE39 whole entry): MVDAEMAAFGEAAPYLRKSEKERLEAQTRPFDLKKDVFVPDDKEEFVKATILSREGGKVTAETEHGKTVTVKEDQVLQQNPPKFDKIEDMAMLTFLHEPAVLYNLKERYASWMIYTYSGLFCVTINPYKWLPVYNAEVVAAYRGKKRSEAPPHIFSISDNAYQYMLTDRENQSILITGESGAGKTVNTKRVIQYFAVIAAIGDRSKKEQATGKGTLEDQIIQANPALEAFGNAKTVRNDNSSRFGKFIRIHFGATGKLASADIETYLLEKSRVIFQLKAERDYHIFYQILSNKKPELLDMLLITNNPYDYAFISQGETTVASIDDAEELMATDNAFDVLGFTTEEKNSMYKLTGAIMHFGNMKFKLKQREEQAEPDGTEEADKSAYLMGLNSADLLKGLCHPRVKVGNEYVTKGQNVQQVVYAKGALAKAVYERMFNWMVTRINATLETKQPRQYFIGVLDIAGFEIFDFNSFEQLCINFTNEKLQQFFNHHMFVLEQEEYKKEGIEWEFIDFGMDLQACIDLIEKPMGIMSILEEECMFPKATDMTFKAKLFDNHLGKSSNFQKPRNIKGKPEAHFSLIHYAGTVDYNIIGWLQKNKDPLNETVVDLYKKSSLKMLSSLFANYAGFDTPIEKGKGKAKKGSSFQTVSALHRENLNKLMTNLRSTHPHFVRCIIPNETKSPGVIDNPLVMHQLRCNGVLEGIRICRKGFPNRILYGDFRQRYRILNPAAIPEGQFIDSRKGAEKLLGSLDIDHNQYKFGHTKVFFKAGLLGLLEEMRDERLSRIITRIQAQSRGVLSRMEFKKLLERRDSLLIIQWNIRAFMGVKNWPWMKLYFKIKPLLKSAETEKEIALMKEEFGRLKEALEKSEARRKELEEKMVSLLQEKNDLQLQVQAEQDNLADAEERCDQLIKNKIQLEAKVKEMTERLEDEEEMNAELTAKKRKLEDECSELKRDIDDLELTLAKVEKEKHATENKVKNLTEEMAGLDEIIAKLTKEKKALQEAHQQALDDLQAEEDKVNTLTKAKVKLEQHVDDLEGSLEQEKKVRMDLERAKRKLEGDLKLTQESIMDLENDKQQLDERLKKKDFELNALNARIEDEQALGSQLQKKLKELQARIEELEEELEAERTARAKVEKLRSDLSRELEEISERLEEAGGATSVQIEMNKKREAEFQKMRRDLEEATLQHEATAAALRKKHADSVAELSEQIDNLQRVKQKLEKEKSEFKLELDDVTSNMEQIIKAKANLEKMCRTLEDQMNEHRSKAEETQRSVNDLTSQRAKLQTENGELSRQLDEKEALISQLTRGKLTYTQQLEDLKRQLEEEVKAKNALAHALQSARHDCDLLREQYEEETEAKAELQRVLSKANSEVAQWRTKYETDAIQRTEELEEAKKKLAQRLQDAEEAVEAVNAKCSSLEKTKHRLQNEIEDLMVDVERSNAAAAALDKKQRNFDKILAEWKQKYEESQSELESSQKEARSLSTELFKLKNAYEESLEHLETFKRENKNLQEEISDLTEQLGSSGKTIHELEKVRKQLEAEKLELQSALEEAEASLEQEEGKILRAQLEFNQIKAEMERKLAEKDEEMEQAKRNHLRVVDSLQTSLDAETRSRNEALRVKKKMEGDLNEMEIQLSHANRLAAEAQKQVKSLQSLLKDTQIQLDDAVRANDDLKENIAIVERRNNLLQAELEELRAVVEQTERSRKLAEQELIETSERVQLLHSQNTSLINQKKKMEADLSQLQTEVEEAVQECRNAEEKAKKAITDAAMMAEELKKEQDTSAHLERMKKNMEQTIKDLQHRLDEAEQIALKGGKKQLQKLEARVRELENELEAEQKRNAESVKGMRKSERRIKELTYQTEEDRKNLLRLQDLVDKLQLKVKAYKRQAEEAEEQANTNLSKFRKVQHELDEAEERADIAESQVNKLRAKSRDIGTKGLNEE
# Sequence of bovine cardiac myosin (P85100 whole entry partner): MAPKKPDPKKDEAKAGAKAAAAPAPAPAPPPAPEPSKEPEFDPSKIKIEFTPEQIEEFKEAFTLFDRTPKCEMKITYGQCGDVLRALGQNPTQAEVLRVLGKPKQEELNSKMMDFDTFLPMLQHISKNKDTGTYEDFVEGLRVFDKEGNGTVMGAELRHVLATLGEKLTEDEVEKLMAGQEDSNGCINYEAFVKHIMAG
# Sequence of bovine cardiac myosin (Q3SZE5 whole entry partner): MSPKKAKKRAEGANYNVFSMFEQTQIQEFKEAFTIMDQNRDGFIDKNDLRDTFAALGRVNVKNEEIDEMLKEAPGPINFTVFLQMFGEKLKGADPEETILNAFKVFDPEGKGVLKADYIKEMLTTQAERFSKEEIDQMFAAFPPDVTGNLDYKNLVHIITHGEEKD
row,Structure (SMILES),IC50 [nM]
1,C[C@H](Nc1nc(=O)n(C2(C)CCC2)c(=O)[nH]1)C1CCCCC1 [Example 89],8640
2,COC[C@H](Nc1nc(=O)n(C2CCOCC2)c(=O)[nH]1)c1ccc(F)cc1F [Example 269],1770
3,CC(=O)N1CCN(c2cccc([C@H](C)Nc3nc(=O)n(C4CCOCC4)c(=O)[nH]3)c2)CC1 [Example 213],7790
4,C[C@H](Nc1nc(=O)n(C2CCOCC2)c(=O)[nH]1)c1cccc(C2CCN(CC(F)(F)F)CC2)c1 [Example 290],2210
5,CC(C)n1c(=O)nc(N[C@@H](C)c2ccccc2)[nH]c1=O [Example 3],7050
6,O=c1nc(N[C@H](c2cccc(C3CN(CC(F)(F)F)C3)c2)C(F)F)[nH]c(=O)n1C1CCOCC1 [Example 259],450
7,Cc1ccc(F)c([C@H](C)Nc2nc(=O)n([C@@H](C3CC3)C(F)(F)F)c(=O)[nH]2)c1 [Example 312],1440
8,CC(Nc1nc(=O)n(C2CCOCC2)c(=O)[nH]1)c1cc(F)ccc1F (stereo not shown) [Example 127],1830
9,C[C@H](Nc1nc(=O)n(C2(C(F)(F)F)CC2)c(=O)[nH]1)C1CCCCC1 [Example 54],4520
10,Cc1ccc(F)c([C@H](C)Nc2nc(=O)n([C@H](C)C(F)(F)F)c(=O)[nH]2)c1 [Example 302],880
11,C[C@H](Nc1nc(=O)n(C2CCC(O)C2)c(=O)[nH]1)C1CCCCC1 (stereo partly shown) [Example 232],8350
12,CC(Nc1nc(=O)n(C2CCNCC2)c(=O)[nH]1)c1ccc(F)cc1 (stereo not shown) [Example 188],4410
13,CC(Nc1nc(=O)n(C2CCOCC2)c(=O)[nH]1)C1CCCCCC1 (stereo not shown) [Example 109],4580
14,COC[C@@H](Nc1nc(=O)n(C2CCOCC2)c(=O)[nH]1)c1cc(C)ccc1F [Example 278],630
15,CC(Nc1nc(=O)n(C2CCNCC2)c(=O)[nH]1)c1ccc(C(F)(F)F)cc1 (stereo not shown) [Example 193],5150
16,C[C@H](Nc1nc(=O)n(C2CCOCC2)c(=O)[nH]1)c1cc(Cl)cc(Cl)c1 [Example 151],1770
17,CC(=O)N1CC(c2cccc([C@@H](Nc3nc(=O)n(C4CCOCC4)c(=O)[nH]3)C(F)F)c2)C1 [Example 260],200
18,CC(C)n1c(=O)nc(N[C@H](c2cccc(C(C)(C)C#N)c2)C(F)F)[nH]c1=O [Example 264],1370
19,C[C@H](Nc1nc(=O)n([C@H](C)C(F)(F)F)c(=O)[nH]1)c1ccc(OC(F)(F)F)cc1 [Example 174],2820
20,C[C@H](Nc1nc(=O)n(CC(F)(F)F)c(=O)[nH]1)C1CCCCC1 [Example 16],690
21,C[C@H](Nc1nc(=O)n([C@H]2CC[C@H](F)CC2)c(=O)[nH]1)C1CCCCC1 [Example 87],450
22,CC(Nc1nc(=O)n(C2CCOCC2)c(=O)[nH]1)c1cc(F)ccc1F (stereo not shown) [Example 319],1280
23,COC(=O)c1ccc([C@H](C)Nc2nc(=O)n(C3CCOCC3)c(=O)[nH]2)cc1 [Example 247],2420
24,C[C@H](Nc1nc(=O)n([C@H](C)C(F)(F)F)c(=O)[nH]1)c1cccc(F)c1 [Example 178],3320

# Next, values leading:
row,IC50 [nM],Structure (SMILES)
1,1490,Cc1cc(C)cc([C@H](C)Nc2nc(=O)n(C3CCOCC3)c(=O)[nH]2)c1 [Example 56]
2,2450,C[C@H](Nc1nc(=O)n(C2CCOCC2)c(=O)[nH]1)c1cccc(C(O)C(F)(F)F)c1 (stereo partly shown) [Example 348]
3,1020,C[C@H](Nc1nc(=O)n([C@@H]2CCOC[C@@H]2F)c(=O)[nH]1)c1ccc(Cl)c(Cl)c1 [Example 320]
4,6650,CC(Nc1nc(=O)n(C2CCOCC2)c(=O)[nH]1)c1cccc(CO)c1 (stereo not shown) [Example 139]
5,880,C[C@H](Nc1nc(=O)n(C2CCOCC2)c(=O)[nH]1)c1cccc(C2CCCCC2)c1 [Example 215]
6,1500,CC(O)c1cccc([C@H](C)Nc2nc(=O)n(C3CCOCC3)c(=O)[nH]2)c1 (stereo partly shown) [Example 248]
7,860,Cc1cc([C@H](C)Nc2nc(=O)n([C@@H]3CCOC[C@@H]3F)c(=O)[nH]2)ccc1F [Example 296]
8,7470,Cc1cccc([C@H](C)Nc2nc(=O)n(C3CCn4nccc4C3)c(=O)[nH]2)c1 (stereo partly shown) [Example 92]
9,2490,CC(Nc1nc(=O)n(C2CCOCC2)c(=O)[nH]1)c1ccc(C(F)(F)F)cc1 (stereo not shown) [Example 131]
10,5810,CC(Nc1nc(=O)n(C2CCNCC2)c(=O)[nH]1)c1cccc(C(F)(F)F)c1 (stereo not shown) [Example 192]
11,880,COC[C@H](Nc1nc(=O)n(C2CCOCC2)c(=O)[nH]1)c1cccc(C)c1 [Example 294]
12,1230,Cc1cccc([C@H](C)Nc2nc(=O)n(C3CCN(S(C)(=O)=O)CC3)c(=O)[nH]2)c1 [Example 244]
13,620,Cc1cccc([C@@H](Nc2nc(=O)n(C3CCOCC3)c(=O)[nH]2)C2CC2)c1 [Example 335]
14,2530,C[C@H](Nc1nc(=O)n(C2CCOCC2)c(=O)[nH]1)c1cccc(-c2ccncc2)c1 [Example 221]
15,4700,CC(Nc1nc(=O)n(C2CCOCC2)c(=O)[nH]1)c1cccc(C(F)(F)F)c1 (stereo not shown) [Example 130]
16,3400,C[C@H](Nc1nc(=O)n(C2CCOCC2)c(=O)[nH]1)c1cccc(N2CC(C)(C)C2)c1 [Example 214]
17,1210,Cc1noc(C)c1-c1cccc([C@H](C)Nc2nc(=O)n(C3CCOCC3)c(=O)[nH]2)c1 [Example 198]

row,IC50 [nM],Structure (SMILES)
1,1370,Cc1ccc(F)c([C@H](C)Nc2nc(=O)n([C@@H]3CCOC[C@@H]3F)c(=O)[nH]2)c1 [Example 313]
2,2620,CC(Nc1nc(=O)n(C2CCOCC2)c(=O)[nH]1)c1ccccc1F (stereo not shown) [Example 121]
3,1230,Cc1cccc([C@H](C)Nc2nc(=O)n([C@H]3CCOC[C@H]3F)c(=O)[nH]2)c1 [Example 316]
4,1240,CC(=O)N1CCC(c2cccc([C@H](C)Nc3nc(=O)n(C4CCOCC4)c(=O)[nH]3)c2)CC1 [Example 329]
5,1740,C[C@H](Nc1nc(=O)n(C2CCOCC2)c(=O)[nH]1)c1cccc(F)c1 [Example 124]
6,2330,CO[C@H]1COCC[C@@H]1n1c(=O)nc(N[C@@H](C)c2cccc(C)c2)[nH]c1=O [Example 347]
7,8400,CC(Nc1nc(=O)n(C2CCOCC2)c(=O)[nH]1)c1ccc(F)cc1 (stereo not shown) [Example 125]
8,880,CC(=O)N1CCC(n2c(=O)nc(N[C@@H](C)c3cccc(C)c3)[nH]c2=O)CC1 [Example 243]
9,740,CCc1ccc([C@H](C)Nc2nc(=O)n(C3CCOCC3)c(=O)[nH]2)cc1 [Example 186]
10,3640,Cc1ccc(C(C)Nc2nc(=O)n(C3CCOCC3)c(=O)[nH]2)cc1 (stereo not shown) [Example 134]
11,770,Cc1ccc(F)c([C@H](C)Nc2nc(=O)n([C@H]3CCOC[C@H]3F)c(=O)[nH]2)c1 [Example 314]
12,1490,C[C@H](Nc1nc(=O)n([C@H]2CCOC[C@H]2F)c(=O)[nH]1)c1cccc(C(F)(F)F)c1 [Example 310]
13,1360,CC(C)n1c(=O)nc(N[C@@H](C)c2cccc(C3CCOCC3)c2)[nH]c1=O [Example 295]
14,240,CC(C#N)c1cccc([C@H](C)Nc2nc(=O)n(C3CCOCC3)c(=O)[nH]2)c1 (stereo partly shown) [Example 277]
15,1370,C[C@H](Nc1nc(=O)n(C2CCOCC2)c(=O)[nH]1)c1cccc(Cl)c1F [Example 11]
16,14100,CC(Nc1nc(=O)n(C2CCOCC2)c(=O)[nH]1)c1ccc(O)cc1 (stereo not shown) [Example 103]
17,2040,Cc1c(-c2cccc([C@H](C)Nc3nc(=O)n(C4CCOCC4)c(=O)[nH]3)c2)cnn1C [Example 197]
